Here are results for seven molecules from patent US8486863B2, “Activators of lateral root formation” (VIB VZW, priority 2006, dated 2013).

The test system of experiment [1] is Wild-type Arabidopsis thaliana. Description: Dose-response analysis of lateral root density and root length. It is filed as in vivo. The method, then:
FIG. 3: Dose-response analysis of class 1 (upper panel) and class 2 (lower panel) activators. Wild-type Arabidopsis thaliana seeds were germinated under standard conditions on agar plates. After 3 days of germination, seedlings were transferred to agar plates containing compound at different concentrations. Lateral root density was measured 10 days after germination. Bars represent standard errors.
FIG. 4: Dose-response analysis of A2, A11, A12, A14 and NAA. Wild-type Arabidopsis thaliana seeds were germinated under standard conditions on agar plates. After 3 days of germination, seedlings were transferred to agar plates containing compound at different concentrations and 1% DMSO. Plants transferred to agar plates containing 1% DMSO and no compound were used as controls. Lateral root density (left panels) and root length (right panels) were measured 10 days after germination. Bars represent standard errors.
For further phenotypic analysis, all plants were grown on vertically oriented square plates (Greiner Labortechnik, Austria) with solid medium derived from standard MS medium under the same conditions. 3 DAG plants were transferred to medium supplemented with compounds and were left to grow for another 7 days. After this, root length and number of LRs were counted using ImageJ 1.34 freeware.
As a subsequent step, the phenotypic effect of the 16 selected activators was determined in a dose-response analysis in which LR density (number of LRs per cm) was quantified (FIG. 3). Based upon potency and structure, two different classes of activators could be identified.

Experiment [2] relates to auxin signaling mutants. Nature of the experiment: Effect of activators on lateral root density of auxin signaling mutants (Table 2). Format: in vivo, Arabidopsis thaliana. The text has this: (§1) Afb1, Afb2, Afb3 and the triple mutant Tirlafb2afb3 were described by Dhamasiri et al. (2005). Tir1 was described by Ruegger et al., (1998); 1aa28 by Rogg et al., (2001); Tir7-1 by Ruegger et al., (1997); the Cyp79b2b3 double mutant by Ljung et al. (2005); the arf7arf19 double mutant by Fukaki et al., (2005); Aux1 by Bennett et al., (1996); Xbat32 by Nodzon et al., (2004), Axr1-12 by Timpte et al., (1995), Slr1 by Fukaki et al., 2002 and Axr3-1 by Collet et al., (2000) and the mutants were obtained from the publishing authors.
(§2) For phenotypic analysis, all mutants were grown on vertically oriented square plates (Greiner Labortechnik, Austria) with solid medium derived from standard MS medium. The plates were put in a growth chamber under continuous light (110 μE.m2.s1 photosynthetically active radiation, supplied by cool-white fluorescent tungsten tubes; Osram) at 22° C. Three days after germination, the mutant plants were transferred to medium supplemented with compounds and were left to grow for another 7 days. After this, root length and number of lateral roots were counted using ImageJ 1.34 freeware.

Experiment [3] has as its system auxin signaling mutants. Nature of the experiment: Effect of A12 and NAA on lateral root density and root length of auxin signaling mutants (Table 1). Format: in vivo, Arabidopsis thaliana. On the set-up: Root length: unit not given here. To be noted: 30 uM.
Excerpt: as §1, §2
DMSO is used as negative control.

The mark [4] stands for this setting: tir TM (Tir1afb2afb3 triple mutant).

Structures are written as SMILES.

As to `O=Cc1ccc(-c2cccc(C(F)(F)F)c2)o1` [A11var5], the “effect on LR formation (LR density), structure-activity analysis” value in experiment [1] (structural variants, FIG. 6-8) is reported as “minimal substructure required to induce LR formation”.
Turning to `Nc1ncc(Cc2cccc(Cl)c2Cl)s1` [A3, 5-(2,3-dichlorobenzyl)-1,3-thiazol-2-amine], the lateral root density came to 17.77 LR/cm in the experiment on auxin signaling mutants [2] (Afb1-1, 3 uM); 19.58 LR/cm in the experiment with auxin signaling mutants [2] (Afb2-1, 3 uM); 17.45 LR/cm in the experiment on auxin signaling mutants [2] (Afb3-1, 3 uM); 33.59 LR/cm in the experiment on auxin signaling mutants [2] (Arf7Arf19, 3 uM); 11.32 LR/cm with auxin signaling mutants [2] (Arf16, 3 uM); 13.31 LR/cm with auxin signaling mutants [2] (Arf17, 3 uM). The lateral root density in the experiment on auxin signaling mutants [2] (Axrt-12, 3 uM) amounted to 15.77 LR/cm; with auxin signaling mutants [2] (Cyp79, 3 uM), 21.24 LR/cm; in the experiment with auxin signaling mutants [2] (Iaa28-1, 3 uM) it was 13.96 LR/cm; with auxin signaling mutants [2] (Tir1-1, 3 uM) it was 11.91 LR/cm; in the experiment on auxin signaling mutants [2] (Tir7-1, 3 uM) it was 26.15 LR/cm; with auxin signaling mutants [2] (TirTM, 3 uM) it was 10.88 LR/cm. For the same molecule, the lateral root density in the experiment on auxin signaling mutants [2] (Xbat32, 3 uM) was determined as 13.07 LR/cm.
As to `Cc1c(N=Cc2cccc(Cl)c2Cl)cccc1[N+](=O)[O-]` [A7, (2,3-dichlorobenzylidene)(2-methyl-3-nitrophenyl)amine], the lateral root density in the experiment with auxin signaling mutants [2] (Afb1-1, 3 uM) turned out to be 9.46 LR/cm; in the experiment with auxin signaling mutants [2] (Afb2-1, 3 uM) it was 2.69 LR/cm; in the experiment on auxin signaling mutants [2] (Afb3-1, 3 uM), 17.43 LR/cm; with auxin signaling mutants [2] (Arf7Arf19, 3 uM) it was 0.00 LR/cm; with auxin signaling mutants [2] (Arf16, 3 uM), 2.71 LR/cm; with auxin signaling mutants [2] (Arf17, 3 uM), 3.40 LR/cm. Also, the lateral root density in the experiment on auxin signaling mutants [2] (Axrt-12, 3 uM) is 2.02 LR/cm; with auxin signaling mutants [2] (Cyp79, 3 uM), 19.35 LR/cm; in the experiment with auxin signaling mutants [2] (Iaa28-1, 3 uM), 0.00 LR/cm; in the experiment on auxin signaling mutants [2] (Tir1-1, 3 uM) it was 1.01 LR/cm; in the experiment on auxin signaling mutants [2] (Tir7-1, 3 uM), 5.73 LR/cm; in the experiment on auxin signaling mutants [2] (TirTM, 3 uM) it was 0.00 LR/cm. The lateral root density in the experiment with auxin signaling mutants [2] (Xbat32, 3 uM) worked out at 1.23 LR/cm.
Take `NC(=S)NN=Cc1ccc(-c2cccc(C(F)(F)F)c2)o1` [A12, 5-[3-(trifluoromethyl)phenyl]-2-furaldehyde thiosemicarbazone]: the “potency as activator of LR development (LR density)” value in experiment [1] (dose-response, FIG. 3) is recorded as “most potent activators of class 2”. Besides, the lateral root density in the experiment with auxin signaling mutants [2] (Afb1-1, 30 uM) turned out to be 23.19 LR/cm; with auxin signaling mutants [2] (Afb2-1, 30 uM) it was 10.44 LR/cm; in the experiment on auxin signaling mutants [2] (Afb3-1, 30 uM) it was 21.05 LR/cm; with auxin signaling mutants [2] (Arf7Arf19, 30 uM), 0.94 LR/cm; with auxin signaling mutants [2] (Arf16, 30 uM), 10.94 LR/cm; in the experiment with auxin signaling mutants [2] (Arf17, 30 uM), 15.09 LR/cm. Also, the lateral root density turned out to be 14.15 LR/cm in the experiment with auxin signaling mutants [2] (Axrt-12, 30 uM); 22.76 LR/cm in the experiment with auxin signaling mutants [2] (Cyp79, 30 uM); 10.00 LR/cm with auxin signaling mutants [2] (Iaa28-1, 30 uM); 27.42 LR/cm with auxin signaling mutants [2] (Tir7-1, 30 uM); 0.00 LR/cm with auxin signaling mutants [2] (TirTM, 30 uM). The LR density in the experiment with auxin signaling mutants [3] (CDKB DN) was found to be 9.09; with auxin signaling mutants [3] (Ws), 16.70; with auxin signaling mutants [3] (Xbat32), 14.16; in the experiment with auxin signaling mutants [3] (afb1-1) it was 15.55; in the experiment with auxin signaling mutants [3] (afb2-1), 15.11; in the experiment on auxin signaling mutants [3] (afb3-1), 21.32. The LR density is given as 1.73 with auxin signaling mutants [3] (arf7arf19 DM (double mutant)); 15.94 with auxin signaling mutants [3] (aux1); 15.84 in the experiment on auxin signaling mutants [3] (axr1-12); 14.10 with auxin signaling mutants [3] (axr5-1); 17.30 in the experiment on auxin signaling mutants [3] (cyp79b2-3 DM (double mutant)); 8.85 in the experiment with auxin signaling mutants [3] (iaa28-1). Moreover, the LR density in the experiment with auxin signaling mutants [3] (lax3) came to 15.27; in the experiment on auxin signaling mutants [3] (msg2-1), 27.49; with auxin signaling mutants [3] (slr-1) it was 0.00; in the experiment with auxin signaling mutants [3] (tir1-1) it was 13.38; in the experiment with auxin signaling mutants [3] (tir7-1), 17.30; in the experiment on auxin signaling mutants [3] (setting [4]) it was 4.82. Moreover, the Root length is 1.56 in the experiment with auxin signaling mutants [3] (CDKB DN); 2.24 in the experiment on auxin signaling mutants [3] (Col-0); 1.92 in the experiment on auxin signaling mutants [3] (Ws); 2.44 in the experiment on auxin signaling mutants [3] (Xbat32); 1.86 in the experiment with auxin signaling mutants [3] (afb1-1); 1.71 in the experiment on auxin signaling mutants [3] (afb2-1). Besides, the Root length with auxin signaling mutants [3] (afb3-1) stood at 2.17; in the experiment with auxin signaling mutants [3] (arf7arf19 DM (double mutant)), 3.45; in the experiment with auxin signaling mutants [3] (aux1) it was 2.24; with auxin signaling mutants [3] (axr1-12) it was 1.62; in the experiment on auxin signaling mutants [3] (axr5-1), 3.40; with auxin signaling mutants [3] (cyp79b2-3 DM (double mutant)), 2.26. In addition, the Root length is 3.39 in the experiment with auxin signaling mutants [3] (iaa28-1); 2.48 in the experiment with auxin signaling mutants [3] (lax3); 1.58 in the experiment with auxin signaling mutants [3] (msg2-1); 1.90 in the experiment on auxin signaling mutants [3] (slr-1); 2.34 in the experiment on auxin signaling mutants [3] (tir1-1); 1.52 with auxin signaling mutants [3] (tir7-1). Besides, in the experiment with auxin signaling mutants [3] (setting [4]), the Root length amounted to 2.60.
On to `Cc1ccccc1OCC(=O)NN=Cc1ccc(C(=O)O)cc1` [A9, 4-{2-[(2-methylphenoxy)acetyl]carbonohydrazonoyl}benzoic acid], for which the lateral root density in the experiment on auxin signaling mutants [2] (Afb1-1, 30 uM) stood at 13.57 LR/cm; in the experiment on auxin signaling mutants [2] (Afb2-1, 30 uM) it was 11.19 LR/cm; in the experiment with auxin signaling mutants [2] (Afb3-1, 30 uM), 16.77 LR/cm; in the experiment with auxin signaling mutants [2] (Arf7Arf19, 30 uM), 0.25 LR/cm; with auxin signaling mutants [2] (Arf16, 30 uM) it was 6.67 LR/cm; in the experiment on auxin signaling mutants [2] (Arf17, 30 uM), 12.86 LR/cm. Also, the lateral root density in the experiment with auxin signaling mutants [2] (Axrt-12, 30 uM) turned out to be 6.09 LR/cm; in the experiment with auxin signaling mutants [2] (Cyp79, 30 uM), 13.29 LR/cm; in the experiment with auxin signaling mutants [2] (Iaa28-1, 30 uM), 12.33 LR/cm; in the experiment with auxin signaling mutants [2] (Tir1-1, 30 uM), 3.29 LR/cm; in the experiment on auxin signaling mutants [2] (Tir7-1, 30 uM), 17.91 LR/cm; in the experiment with auxin signaling mutants [2] (TirTM, 30 uM), 0.00 LR/cm. In addition, the lateral root density with auxin signaling mutants [2] (Xbat32, 30 uM) worked out at 8.43 LR/cm.
In the case of `Clc1cccc(C=Nc2ccc(N3CCOCC3)cc2)c1Cl` [A4, (2,3-dichlorobenzylidene)[4-(4-morpholinyl)phenyl]amine], the lateral root density turned out to be 2.69 LR/cm in the experiment with auxin signaling mutants [2] (Afb1-1, 3 uM); 2.16 LR/cm in the experiment on auxin signaling mutants [2] (Afb2-1, 3 uM); 2.55 LR/cm in the experiment on auxin signaling mutants [2] (Afb3-1, 3 uM); 0.00 LR/cm in the experiment on auxin signaling mutants [2] (Arf7Arf19, 3 uM); 1.99 LR/cm in the experiment with auxin signaling mutants [2] (Arf16, 3 uM); 1.87 LR/cm in the experiment with auxin signaling mutants [2] (Arf17, 3 uM). Further, the lateral root density worked out at 1.64 LR/cm in the experiment with auxin signaling mutants [2] (Axrt-12, 3 uM); 2.64 LR/cm in the experiment on auxin signaling mutants [2] (Cyp79, 3 uM); 0.00 LR/cm in the experiment on auxin signaling mutants [2] (Iaa28-1, 3 uM); 0.89 LR/cm in the experiment on auxin signaling mutants [2] (Tir1-1, 3 uM); 3.69 LR/cm in the experiment with auxin signaling mutants [2] (Tir7-1, 3 uM); 0.00 LR/cm in the experiment with auxin signaling mutants [2] (TirTM, 3 uM). The lateral root density with auxin signaling mutants [2] (Xbat32, 3 uM) was determined as 0.91 LR/cm.
For `O=C(NN=Cc1cccc(Cl)c1Cl)c1ccc(O)c(O)c1` [A6, N′-(2,3-dichlorobenzylidene)-3,4-dihydroxybenzohydrazide], the lateral root density stood at 10.89 LR/cm with auxin signaling mutants [2] (Afb1-1, 3 uM); 7.34 LR/cm in the experiment on auxin signaling mutants [2] (Afb2-1, 3 uM); 14.40 LR/cm with auxin signaling mutants [2] (Afb3-1, 3 uM); 0.00 LR/cm with auxin signaling mutants [2] (Arf7Arf19, 3 uM); 6.67 LR/cm in the experiment with auxin signaling mutants [2] (Arf16, 3 uM); 7.24 LR/cm in the experiment with auxin signaling mutants [2] (Arf17, 3 uM). Also, the lateral root density in the experiment on auxin signaling mutants [2] (Axrt-12, 3 uM) is reported as 4.78 LR/cm; with auxin signaling mutants [2] (Cyp79, 3 uM) it was 31.92 LR/cm; in the experiment with auxin signaling mutants [2] (Iaa28-1, 3 uM), 0.00 LR/cm; in the experiment on auxin signaling mutants [2] (Tir1-1, 3 uM), 0.57 LR/cm; with auxin signaling mutants [2] (Tir7-1, 3 uM), 11.42 LR/cm; in the experiment on auxin signaling mutants [2] (TirTM, 3 uM), 0.00 LR/cm. Moreover, the lateral root density with auxin signaling mutants [2] (Xbat32, 3 uM) amounted to 10.08 LR/cm.
